From US9931629B2, “Substance exposure apparatus” (The University of Queensland, priority 2011, dated 2018)
Entries after “also recorded” stand apart in the source; their conditions may differ.

What was measured:
Assay type in all cases: cell-based, human
HES3-MIXL1-GFP hESCs [1] = assay: Primitive streak array screening of CHIR99021, conditioned medium and IWP-4 (MIXL1-GFP reporter); details: background RPMI B27 with 10 ng/mL BMP-4 and 6 ng/mL Activin A, continuous flow
Protocol: For use in apparatus 300, conditioned medium was recovered from static controls differentiated in 10 ng/mL BMP-4 and 6 ng/mL Activin A in RPMI B27 medium. Cells were removed by centrifugation and supernatant medium stored at 4° C. Media from days 1 and 2 were mixed and BMP-4 and Activin A re-supplemented at 50% of nominal levels before use in arrays.

HES3-MIXL1-GFP hESCs [2] = assay: Static primitive streak induction cultures with chemical modulation of Wnt signals
Protocol: HES3-MIXL1-GFP hESCs maintained in mTeSR-1/Matrigel cultures were detached with TrypLE Express, seeded at 7.5×10^4 cells/cm^2 into 24-well plates coated with a limiting dilution of hESC-qualified Matrigel and allowed to attach overnight, after which cultures were typically ˜60% confluent. MIXL1-GFP expression was then induced by differentiating in RPMI B27 medium with 10 ng/ml BMP-4 and 6 ng/ml Activin A (both R&D Systems) for 2.5 d with optional addition of 5 μM IWP-4 and 5 μM CHIR99021 (both Stemgent), or 0.1% v/v DMSO vehicle control.
Although such paracrine factor dependencies and negative feedback signals regulating mesendoderm specification are clearly necessary developmental drivers in a transient in vivo structure such as primitive streak, they inevitably reduce efficiency of in vitro differentiation. It was therefore tested whether the outcomes of modulating positive and negative paracrine regulators in the array could be translated to optimise directed differentiation protocols in conventional static cultures.

HES3-MIXL1-GFP hESCs [3] = assay: Primitive streak differentiation screening in array of BIO, BMP-4 and Activin A (MIXL1-GFP reporter)
Protocol: Cells were allowed to attach to the well array 330 for 8-10 h in an incubator (37° C., 5% CO2 in air), then subjected to continuous fluid flow under the specified factor conditions at 60 μL/h total flowrate.
Serial exchange of staining and washing solutions was driven by a syringe pump.
Spot intensities in each channel were linearly transformed about the mean and standard deviation for all spots in that channel in an individual array, by IEOS-GFP=(TEOS-GFP−μEOS-GFP)/σEOS-GFP, where IEOS-GFP is the expression index of EOS-GFP, and μEOS-GFP is the mean and σEOS-GFP the standard deviation of all TEOS-GFP for a particular array. This provides expression indices (IEOS-GFP, IMIXL1-GFP) rating each spot's intensity in terms of global standard deviations relative to the global mean.
Factorial analyses are performed on expression index data with MINITAB 15 software (Minitab Inc.). Expression indices were designated as response variables and soluble factors designated as inputs. A fourth input variable, ‘Position’, was defined based on each culture well's row coordinate in the array. Effect magnitudes were then generated by MINITAB according to methods described elsewhere^45. Pearson product-moment correlation coefficients (rX,Y), coefficients of determination for linear regression (R^2), and Student's t-test statistics were calculated with Microsoft Excel. For Student's t-tests, two-tailed tests were performed for two samples assuming unequal variances, and differences with p<0.05 were considered significant.
HES3-MIXL1-GFP hESCs (also, HES3 MIXL1^GFP/w hESCs; karyotying and in vivo teratomas) growing as a monolayer were differentiated under continual flow in the apparatus 300 for 2.5 d in a full-factorial array of BMP-4, Activin A, and the GSK-3β inhibitor/canonical Wnt activator 6-bromoindirubin-3′-oxime (BIO) in RPMI B27 medium. A screening panel showing array conditions is shown in FIG. 6A, with numbers indicating concentrations of BIO (μM), BMP-4 (ng/mL) and Activin A (ng/mL).

[4] = 2.5 d, continual flow, RPMI B27 medium

In the case of Cc1c[nH]c(-c2cnc(NCCNc3ccc(C#N)cn3)nc2-c2ccc(Cl)cc2Cl)n1 [CHIR99021], the “effect on MIXL1-GFP expression level and position in the array” value (HES3-MIXL1-GFP hESCs [1]) is reported as “only shifted expression up marginally; also recorded: produced an extended streak of MIXL1-GFP expression”, the “effect on MIXL1-GFP expression level and position in the array” value (HES3-MIXL1-GFP hESCs [1]; listed as CHIR) is reported as “both improved the expression level and broadened the number of rows over which appreciable expression extended” and the “MIXL1-GFP induction, % of cells” value (HES3-MIXL1-GFP hESCs [2]; 5 μM CHIR99021 added to RPMI B27+10 ng/mL BMP-4+6 ng/mL Activin A, 2.5 d, 51% under standard conditions) is reported as 86%.

COc1ccccc1-n1c(SCC(=O)Nc2nc3ccc(C)cc3s2)nc2c(c1=O)SCC2 [IWP-4] was tested, and the MIXL1 induction (HES3-MIXL1-GFP hESCs [2]; static controls, FIG. 7H, 5 μM IWP-4) was “completely blocked MIXL1 induction”.

With O=C1Nc2cc(Br)ccc2/C1=C1/Nc2ccccc2/C1=N\O [BIO, 6-bromoindirubin-3′-oxime] the “optimum concentration for expression index IMIXL1-GFP (factorial analysis)” value (HES3-MIXL1-GFP hESCs [3]; 2.5 d, continual flow, RPMI B27 medium, levels 0, 1, 2 μM) was 1 µM and the “number of rows over which bright MIXL1-GFP expression extended” value (HES3-MIXL1-GFP hESCs [3]; column 15: 1 μM BIO with 10 ng/mL BMP-4, 6 ng/mL Activin A, single peak at row 7 without BIO) was 4-5 rows.

B1: BMP-4: soluble growth factor (R&D Systems) used for primitive streak induction (protein, UniProt P12644 293-408, looked up)
Bone morphogenetic protein 4: SPKHHSQRARKKNKNCRRHSLYVDFSDVGWNDWIVAPPGYQAFYCHGDCPFPLADHLNSTNHAIVQTLVNSVNSSIPKACCVPTELSAISMLYLDEYDKVVLKNYQEMVVEGCGCR
B1 was tested, and the “optimum concentration for expression index IMIXL1-GFP (factorial analysis)” value (HES3-MIXL1-GFP hESCs [3]; [4]) was 10 ng/mL.

B2: Activin A: soluble growth factor (R&D Systems) used for primitive streak induction (protein, UniProt P08476 311-426, looked up)
Inhibin beta A chain: GLECDGKVNICCKKQFFVSFKDIGWNDWIIAPSGYHANYCEGECPSHIAGTSGSSLSFHSTVINHYRMRGHSPFANLKSCCVPTKLRPMSMLYYDDGQNIIKKDIQNMIVEECGCS
B2 was tested, and the “dependence of expression index IMIXL1-GFP on factor (factorial analysis)” value (HES3-MIXL1-GFP hESCs [3]; [4]) was “linear, positive dependence”.
